Our source for the MIC values is patent US4613503A, “Antibiotic A26201-1 and antibiotic A26201-2 produced by a novel strain of actinoplanes” (The Dow Chemical Company, priority 1984, dated 1986).

Common to all, as to format: cell-based
Assay [1] deals with Streptococcus mutans. Kind of assay: Minimum inhibitory concentration, agar dilution. The note with it: trypticase soy agar, 2-fold serial dilutions. On the technique in general: Agar dilution tests growth on a series of plates holding different concentrations.
Assay [2] concerns Lactobacillus casei. Nature of the assay: Minimum inhibitory concentration, agar dilution. The note with it: trypticase soy agar, 2-fold serial dilutions.
For assay [3], the system named is Sarcina lutea. Nature of the assay: Minimum inhibitory concentration, agar dilution. The note with it: trypticase soy agar, 2-fold serial dilutions.
The subject of assay [4] is Actinomyces viscosus. Kind of assay: Minimum inhibitory concentration, agar dilution. The note with it: trypticase soy agar, 2-fold serial dilutions.
The test system of assay [5] is Erwinia amylovora. Kind of assay: Minimum inhibitory concentration, agar dilution. The note with it: trypticase soy agar, 2-fold serial dilutions.
The subject of assay [6] is Bacteroides multiacidus. Kind of assay: Minimum inhibitory concentration, agar dilution. The note with it: trypticase soy agar, 2-fold serial dilutions.
Assay [7] relates to Staphylococcus aureus. Kind of assay: Minimum inhibitory concentration, agar dilution. Particulars: trypticase soy agar, 2-fold serial dilutions.
Assay [8] relates to Streptococcus faecalis. Nature of the assay: Minimum inhibitory concentration, agar dilution. Particulars: trypticase soy agar, 2-fold serial dilutions.
Assay [9] deals with Mucor miehei. Nature of the assay: Minimum inhibitory concentration, agar dilution. The note with it: trypticase soy agar, 2-fold serial dilutions.
The test system of assay [10] is Salmonella typhimurium. Nature of the assay: Minimum inhibitory concentration, agar dilution. Particulars: trypticase soy agar, 2-fold serial dilutions.
Assay [11] concerns Clostridium perfringens.
For assay [12], the system named is Escherchia coli. Nature of the assay: Minimum inhibitory concentration, agar dilution. The note with it: trypticase soy agar, 2-fold serial dilutions.
The subject of assay [13] is Pseudomonas aeruginosa. Kind of assay: Minimum inhibitory concentration, agar dilution. The note with it: trypticase soy agar, 2-fold serial dilutions.
In assay [14] the test system is Bacteroides fragilis. Kind of assay: Minimum inhibitory concentration, agar dilution. The note with it: trypticase soy agar, 2-fold serial dilutions.
Assay [15] concerns Bacillus subtilis. Nature of the assay: Minimum inhibitory concentration, agar dilution. Particulars: trypticase soy agar, 2-fold serial dilutions.
Assay [16] deals with Pircularia oryzae. Kind of assay: Minimum inhibitory concentration, agar dilution. The note with it: trypticase soy agar, 2-fold serial dilutions. The procedure:
Minimum inhibitory concentrations (MIC's) were determined respectively for the crude broth material, antibiotic A26201, antibiotic A26201-1, antibiotic A26201-2, and gardimycin against a number of different microorganisms. The following techniques were used to determine the MIC's:
Thirty ml aliquots of trypticase soy agar were respectively placed in individual tubes. The agar was melted and then cooled to about 45° to 50° C. A concentration (2-fold serial dilutions of the highest concentration tested) of test antibiotic was added to each individual tube. Each test mixture was stirred and poured into an individual petri plate so that each petri plate contained a single concentration of antibiotic. When the agar hardened, the plates were inoculated with either aerobic or anaerobic test organisms. The plates inoculated with aerobic organisms were incubated at 37° C. for 24 hours and read for bacterial growth. The same plates were again incubated at 30° C. for an additional 48 hours at which point they were checked for yeast and fungal growth. The plates inoculated with anaerobic organisms were incubated at 37° C. in an anaerobic chamber and read at 48 hours.

The test system of assay [17] is Clostridium septicum. Kind of assay: Minimum inhibitory concentration, agar dilution. Particulars: trypticase soy agar, 2-fold serial dilutions.
The subject of assay [18] is Fusobacterium necrophorum. Nature of the assay: Minimum inhibitory concentration, agar dilution. Particulars: trypticase soy agar, 2-fold serial dilutions.
The subject of assay [19] is Aspergillus niger. Kind of assay: Minimum inhibitory concentration, agar dilution. Particulars: trypticase soy agar, 2-fold serial dilutions.
For assay [20], the system named is Streptococcus bovis. Nature of the assay: Minimum inhibitory concentration, agar dilution. Particulars: trypticase soy agar, 2-fold serial dilutions.
Assay [21] concerns Candida albicans. Nature of the assay: Minimum inhibitory concentration, agar dilution. Particulars: trypticase soy agar, 2-fold serial dilutions.

As usually defined, the MIC is the lowest concentration that inhibits growth of the organism. Low readings indicate greater potency, high ones weaker potency. In the case of gardimycin, the minimal inhibitory concentration (MIC) is > 75 µg/mL in assay [1]; > 75 µg/mL in assay [2]; 1.5 µg/mL in [3]; 12.5 µg/mL in assay [4]; > 75 µg/mL in assay [5]; > 50 µg/mL in assay [6]. The minimum inhibitory concentration (MIC) is 75 µg/mL in assay [7]; 25 µg/mL in [8]; > 75 µg/mL in assay [9]; > 75 µg/mL in [10]; 3.1 µg/mL in assay [11]; > 75 µg/mL in assay [12]. The MIC in assay [13] was > 75 µg/mL; in assay [14], > 50 µg/mL; in [15], 75 µg/mL; in assay [16], > 75 µg/mL; in assay [17], 3.1 µg/mL; in assay [18], > 75 µg/mL. The MIC in assay [19], in [20] and in assay [21] was > 75 µg/mL throughout.
